Results as given in patent publication US8097635B2, “Insulin resistance improving agent” (Kyowa Hakko Bio Co., Ltd., priority 2006, dated 2012).

Key:
Type in all cases: in vivo
[1] = test system: BKS. Cg-+Lepr^db/+Lepr^db/JcI mice (type II diabetes model mice); experiment: Test Example 1 overall conclusion (insulin resistance, type II diabetes, body weight); conditions: Test Example 1, oral once a day for about 32 days
From the text: Twenty seven (27) BKS. Cg-+Lepr^db/+Lepr^db/JcI mice (Clea Japan Inc., female, 7 week old), which were type II diabetes model mice expressing the symptoms of hyperinsulinemia due to insulin resistance, were divided into 3 groups each consisting of 9 mice. The groups were designated as group 1, group 2, and group 3. Mice of the groups 1 to 3 were fed with free access to pellets CE-2 (Clea Japan Inc.; hereinafter referred to as “CE-2”) for feeding mice and rats. To the mice of group 1, 0.5 w/v % methyl cellulose (0.5 w/v % methyl cellulose 400 cP solution, sterilized, produced by Wako Pure Chemical Industries, Ltd. for biochemistry; hereinafter referred to as “0.5% MC”) was administered orally once a day (10 mL/kg). […] Nonfasting blood serum glucose levels and nonfasting serum insulin concentrations were separately measured using a glucose C-II Test Wako (produced by Wako Pure Chemical Industries, Ltd.) and a Mouse Insulin ELISA Kit (S-type) (produced by Shibayagi Co., Ltd.), respectively. […] Blood glucose levels were measured using a Medisafe Reader GR-101 (produced by Terumo Corporation). […] Blood serum glucose levels and serum insulin concentrations were separately measured using a glucose C-II Test Wako and a Mouse Insulin ELISA Kit (S-type), respectively. The results were expressed as average levels±standard deviation (n=9). […]

[2] = test system: type II diabetes model KK-AY/Ta JcI mice; experiment: Glucose tolerance test, Test Example 2; conditions: for Blood glucose level: glucose tolerance test day 15, glucose 1 g/kg orally after 18 h fasting, 10 mL/kg orally once a day; for Blood glucose levels in glucose tolerance test compared with group 1 (0.5% MC): 30, 60 and 120 minutes after glucose
Method: Eighteen type II diabetes model KK-AY/Ta JcI mice (Clea Japan Inc., male, 6 week old) were divided into 3 groups (6 mice in group 1, 7 mice in group 2, and 5 mice in group 3). The groups were designated as group 1, group 2, and group 3, respectively. Mice of the groups 1 to 3 were fed with free access to pellets CE-2 for feeding mice and rats. To the mice of group 1, 0.5% MC was administered orally once a day (10 mL/kg). To the mice of group 2, a PQQ disodium salt suspended in 0.5% MC to a concentration of 0.5 mg/mL was administered orally once a day (10 mL/kg). To the mice of group 3, a PQQ disodium salt suspended in 0.5% MC to a concentration of 2 mg/mL was administered orally once a day (10 mL/kg). After 18 hours of fasting from day 14 to day 15 after the initiation of the test, a 10% (w/v) glucose aqueous solution was administered orally to each mouse at 1 g/kg B.W., so as to load the mice with glucose to test the glucose tolerance. Blood was collected from tail veins at 0 minutes, 30 minutes, 60 minutes, and 120 minutes after administration of the glucose aqueous solution. Blood glucose levels were measured using a Medisafe Reader GR-101 (produced by Terumo Corporation). […] Blood glucose levels were expressed as average levels±standard deviation (n=5-7) and statistical significance levels (p-values) were found by a t-test (group 1 with respect to group 2; and group 1 with respect to group 3).

[3] = test system: BKS. Cg-+Lepr^db/+Lepr^db/JcI mice (type II diabetes model mice); experiment: Nonfasting serum insulin concentration, Test Example 1; conditions: for Serum insulin concentration: non-fasting, 10 mL/kg orally once a day
From the text: (§1) Twenty seven (27) BKS. Cg-+Lepr^db/+Lepr^db/JcI mice (Clea Japan Inc., female, 7 week old), which were type II diabetes model mice expressing the symptoms of hyperinsulinemia due to insulin resistance, were divided into 3 groups each consisting of 9 mice. The groups were designated as group 1, group 2, and group 3. Mice of the groups 1 to 3 were fed with free access to pellets CE-2 (Clea Japan Inc.; hereinafter referred to as “CE-2”) for feeding mice and rats. To the mice of group 1, 0.5 w/v % methyl cellulose (0.5 w/v % methyl cellulose 400 cP solution, sterilized, produced by Wako Pure Chemical Industries, Ltd. for biochemistry; hereinafter referred to as “0.5% MC”) was administered orally once a day (10 mL/kg). To the mice of group 2, a pyrroloquinoline quinone disodium salt (hereinafter referred to as “PQQ disodium salt,” produced by Mitsubishi Gas Chemical Company, Inc.) suspended in 0.5% MC to a concentration of 0.5 mg/mL was administered orally once a day (10 mL/kg). To the mice of group 3, a PQQ disodium salt suspended in 0.5% MC to a concentration of 2 mg/mL was administered orally once a day (10 mL/kg). Blood was collected from the orbital veins on day 14 and day 28 after the initiation of the test, and thus serum was obtained. Nonfasting blood serum glucose levels and nonfasting serum insulin concentrations were separately measured using a glucose C-II Test Wako (produced by Wako Pure Chemical Industries, Ltd.) and a Mouse Insulin ELISA Kit (S-type) (produced by Shibayagi Co., Ltd.), respectively. After 18 hours of fasting from day 28 to day 29 after the initiation of the test, a 40% (w/v) glucose aqueous solution was administered orally to each mouse at 2 g/kg B.W., so as to load the mice with glucose (to test the glucose tolerance). Blood was collected from tail veins at the time of administration of a glucose aqueous solution (0 minute) and then at a certain time point after administration (120 minutes). Blood glucose levels were measured using a Medisafe Reader GR-101 (produced by Terumo Corporation). […] Blood serum glucose levels and serum insulin concentrations were separately measured using a glucose C-II Test Wako and a Mouse Insulin ELISA Kit (S-type), respectively. The results were expressed as average levels±standard deviation (n=9). Statistical significance levels (p-values) were found by a t-test (group 1 with respect to group 2; and group 1 with respect to group 3).

[4] = test system: BKS. Cg-+Lepr^db/+Lepr^db/JcI mice (type II diabetes model mice); experiment: Nonfasting blood serum glucose level, Test Example 1; conditions: for Blood glucose level: non-fasting, 10 mL/kg orally once a day
From the text: as §1

[5] = Body weight of type II diabetes model mice, Test Example 1; conditions: for Body weight: 10 mL/kg orally once a day
From the text: Twenty seven (27) BKS. Cg-+Lepr^db/+Lepr^db/JcI mice (Clea Japan Inc., female, 7 week old), which were type II diabetes model mice expressing the symptoms of hyperinsulinemia due to insulin resistance, were divided into 3 groups each consisting of 9 mice. The groups were designated as group 1, group 2, and group 3.
Mice of the groups 1 to 3 were fed with free access to pellets CE-2 (Clea Japan Inc.; hereinafter referred to as “CE-2”) for feeding mice and rats. To the mice of group 1, 0.5 w/v % methyl cellulose (0.5 w/v % methyl cellulose 400 cP solution, sterilized, produced by Wako Pure Chemical Industries, Ltd. for biochemistry; hereinafter referred to as “0.5% MC”) was administered orally once a day (10 mL/kg). To the mice of group 2, a pyrroloquinoline quinone disodium salt (hereinafter referred to as “PQQ disodium salt,” produced by Mitsubishi Gas Chemical Company, Inc.) suspended in 0.5% MC to a concentration of 0.5 mg/mL was administered orally once a day (10 mL/kg). To the mice of group 3, a PQQ disodium salt suspended in 0.5% MC to a concentration of 2 mg/mL was administered orally once a day (10 mL/kg).

[6] = test system: BKS. Cg-+Lepr^db/+Lepr^db/JcI mice (type II diabetes model mice); experiment: Fasting blood serum glucose level on day 32, Test Example 1; conditions: for Blood glucose level: fasting, day 32 after initiation of test, 10 mL/kg orally once a day; for Fasting blood glucose levels compared with group 1 (0.5% MC): day 32
From the text: as §1

[7] = test system: BKS. Cg-+Lepr^db/+Lepr^db/JcI mice (type II diabetes model mice); experiment: Glucose tolerance test, Test Example 1; conditions: for Blood glucose level: glucose tolerance test day 29, glucose 2 g/kg orally after 18 h fasting, 10 mL/kg orally once a day
From the text: as §1

[8] = test system: BKS. Cg-+Lepr^db/+Lepr^db/JcI mice (type II diabetes model mice); experiment: Fasting serum insulin concentration on day 32, Test Example 1; conditions: for Insulin concentration: day 32 after initiation of test, 10 mL/kg orally once a day
From the text: Twenty seven (27) BKS. Cg-+Lepr^db/+Lepr^db/JcI mice (Clea Japan Inc., female, 7 week old), which were type II diabetes model mice expressing the symptoms of hyperinsulinemia due to insulin resistance, were divided into 3 groups each consisting of 9 mice. The groups were designated as group 1, group 2, and group 3. Mice of the groups 1 to 3 were fed with free access to pellets CE-2 (Clea Japan Inc.; hereinafter referred to as “CE-2”) for feeding mice and rats. To the mice of group 1, 0.5 w/v % methyl cellulose (0.5 w/v % methyl cellulose 400 cP solution, sterilized, produced by Wako Pure Chemical Industries, Ltd. for biochemistry; hereinafter referred to as “0.5% MC”) was administered orally once a day (10 mL/kg). To the mice of group 2, a pyrroloquinoline quinone disodium salt (hereinafter referred to as “PQQ disodium salt,” produced by Mitsubishi Gas Chemical Company, Inc.) suspended in 0.5% MC to a concentration of 0.5 mg/mL was administered orally once a day (10 mL/kg). To the mice of group 3, a PQQ disodium salt suspended in 0.5% MC to a concentration of 2 mg/mL was administered orally once a day (10 mL/kg). Blood was collected from the orbital veins on day 14 and day 28 after the initiation of the test, and thus serum was obtained. Nonfasting blood serum glucose levels and nonfasting serum insulin concentrations were separately measured using a glucose C-II Test Wako (produced by Wako Pure Chemical Industries, Ltd.) and a Mouse Insulin ELISA Kit (S-type) (produced by Shibayagi Co., Ltd.), respectively. […] Blood glucose levels were measured using a Medisafe Reader GR-101 (produced by Terumo Corporation). […] Blood serum glucose levels and serum insulin concentrations were separately measured using a glucose C-II Test Wako and a Mouse Insulin ELISA Kit (S-type), respectively. The results were expressed as average levels±standard deviation (n=9). […]

[9] = group 2 (0.5 mg/mL, 10 mL/kg orally once a day)
[10] = group 3 (2 mg/mL, 10 mL/kg orally once a day)
[11] = group 2: 0.5 mg/mL, day 14 after initiation of test
[12] = group 2: 0.5 mg/mL, day 28 after initiation of test
[13] = group 3: 2 mg/mL, day 14 after initiation of test
[14] = group 3: 2 mg/mL, day 28 after initiation of test

O=C(O)c1cc(C(=O)O)c2c(n1)C(=O)C(=O)c1cc(C(=O)O)[nH]c1-2.[Na].[Na] [PQQ disodium salt, pyrroloquinoline quinone disodium salt]
Overall effect on insulin resistance, type II diabetes and body weight [1]: exerts an effect of improving insulin resistance and a therapeutic effect on type II diabetes without body weight gain | Overall effect on type II diabetes ([2]; Test Example 2, model mice with a gene mutation differing from test example 1): exerts a therapeutic effect on type II diabetes | Blood glucose level ([2]; group 2: 0.5 mg/mL, 0 minutes): 116.7 ± 10.1 mg/dL | Blood glucose level ([2]; group 2: 0.5 mg/mL, 30 minutes, ***p < 0.001 with respect to group 1): 274.9 ± 8.4*** mg/dl | Blood glucose level ([2]; group 2: 0.5 mg/mL, 60 minutes, *p < 0.05 with respect to group 1): 264.6 ± 7.6* mg/dl | Blood glucose level ([2]; group 2: 0.5 mg/mL, 120 minutes, **p < 0.01 with respect to group 1): 184.3 ± 7.8** mg/dl | Blood glucose level ([2]; group 3: 2 mg/mL, 0 minutes): 117.0 ± 12.2 mg/dL | Blood glucose level ([2]; group 3: 2 mg/mL, 30 minutes): 300.0 ± 24.1 mg/dL | Blood glucose level ([2]; group 3: 2 mg/mL, 60 minutes): 261.6 ± 25.6 mg/dL | Blood glucose level ([2]; group 3: 2 mg/mL, 120 minutes): 187.4 ± 20.3 mg/dL | Blood glucose levels in glucose tolerance test compared with group 1 (0.5% MC) [2, 9]: significantly lower than those of group 1 | Blood glucose levels in glucose tolerance test compared with group 1 (0.5% MC) [2, 10]: lower than those of group 1 | Serum insulin concentrations compared with group 1 (0.5% MC) ([3]; groups 2 and 3 (0.5 and 2 mg/mL, 10 mL/kg orally once a day), day 14 and 28): lower than those of group 1 | Serum insulin concentration [3, 11]: 4.02 ± 0.75 ng/mL | Serum insulin concentration [3, 12]: 3.02 ± 0.47 ng/mL | Serum insulin concentration [3, 13]: 6.23 ± 1.69 ng/mL | Serum insulin concentration [3, 14]: 4.82 ± 1.81 ng/mL | Non-fasting blood glucose levels compared with group 1 (0.5% MC) ([4]; groups 2 and 3 (0.5 and 2 mg/mL, 10 mL/kg orally once a day), day 14 and day 28): lower than those of group 1 | Blood glucose level [4, 11]: 427.7 ± 11.4 mg/dL | Blood glucose level [4, 12]: 531.5 ± 12.3 mg/dL | Blood glucose level [4, 13]: 405.7 ± 24.1 mg/dL | Blood glucose level [4, 14]: 546.1 ± 26.0 mg/dL | Body weight ([5]; group 2: 0.5 mg/mL in 0.5% MC, day 0 (test initiated)): 29.90 ± 0.37 g | Body weight ([5]; group 2: 0.5 mg/mL in 0.5% MC, day 31): 37.18 ± 0.65 g | Body weight ([5]; group 3: 2 mg/mL in 0.5% MC, day 0 (test initiated)): 29.93 ± 0.51 g | Body weight ([5]; group 3: 2 mg/mL in 0.5% MC, day 31): 39.01 ± 1.07 g | Body weights compared with group 1 (0.5% MC) ([5]; groups 2 and 3 (0.5 and 2 mg/mL, 10 mL/kg orally once a day), after completion of the test): almost the same as those of group 1 | Blood glucose level ([6]; group 2: 0.5 mg/mL): 617.7 ± 39.1 mg/dL | Blood glucose level ([6]; group 3: 2 mg/mL, *p < 0.05 with respect to group 1): 575.6 ± 33.3* mg/dl | Fasting blood glucose levels compared with group 1 (0.5% MC) [6, 9]: lower than those of group 1 | Fasting blood glucose levels compared with group 1 (0.5% MC) [6, 10]: significantly lower than those of group 1 | Blood glucose level ([7]; group 2: 0.5 mg/mL, 0 minute): 281.3 ± 16.3 mg/dL | Blood glucose level ([7]; group 2: 0.5 mg/mL, 120 minutes): 522.0 ± 22.9 mg/dL | Blood glucose level ([7]; group 3: 2 mg/mL, 0 minute): 303.4 ± 25.9 mg/dL | Blood glucose level ([7]; group 3: 2 mg/mL, 120 minutes): 489.3 ± 47.5 mg/dL | Blood glucose levels in glucose tolerance test compared with group 1 (0.5% MC) ([7]; groups 2 and 3 (0.5 and 2 mg/mL, 10 mL/kg orally once a day), 120 minutes after glucose): lower than those of group 1 | Insulin concentration ([8]; group 2: 0.5 mg/mL): 4.88 ± 0.75 ng/mL | Insulin concentration ([8]; group 3: 2 mg/mL): 4.4 ± 0.66 ng/mL | Serum insulin concentrations compared with group 1 (0.5% MC) ([8]; groups 2 and 3 (0.5 and 2 mg/mL, 10 mL/kg orally once a day), day 32): lower than those of group 1
